Assay [1] addresses T1, CXCR4 12G5 epitope of AML cells (Homo sapiens, UniProt P61073).
T1 construct: endogenous in cells
Briefly: Blocking of the CXCR4 12G5 epitope of AML cells. The format is binding. The source says:
(§1) Experimental data support the efficiency of the claimed peptide derivatives against the diseases mentioned above. At the example of JM #21 (SEQ ID NO.: 23) it could be shown that the peptides counteract growth and migration in vitro and in vivo of Acute Myeloid Leukemia (AML) cells as well as primary patient material and Waldenström's Macroglobulinemia (WM) cells harboring different WHIM-like CXCR4 mutations. This was accompanied by intrinsic changes suppressing oncogenic MAP kinase signaling of AML and WM cells.

For assay [2], the system named is CD34+ normal cells. Nature of the assay: Engraftment of CD34+ normal cells. As to conditions: in vivo.
From the text: as §1

In assay [3] the test system is AML cells. Nature of the assay: Migration of AML cells along a CXCL12 gradient. The format is cell-based.
From the text: as §1

The test system of assay [4] is primary CXCR4 AML patient samples. Briefly: Engraftment of primary AML patient samples in NSG mice. The format is in vivo.
From the text: as §1

Assay [5] deals with T2, CXCR4 (Homo sapiens, UniProt P61073).
T2 construct: endogenous in cells; host or cells: SupT1 cells
Briefly: Antibody competition assay (12G5-assay) on SupT1 cells. The format is binding. How it is done:
Second, the activity was tested by an antibody competition assay (FIG. 2). Values determined by the competition assay represent the potency of a compound to compete with an antibody that specifically binds to the binding pocket (ECL2) of CXCR4. […] To the right of the diagrams, an assignment of the curves to the tested peptides is explained. […] Three independent experiments were carried out for each peptide in each assay. The error bars refer to the standard deviation.
Antibody competition assay. Competition of compounds with antibody binding was performed on SupT1 cells. For that cells were washed in PBS containing 1% FCS and 50,000 cells were then seeded per well in a 96 V-well plate. Buffer was removed and plates were precooled at 4° C. Compounds were diluted in PBS and antibody (clone 12G5, APC labelled) was diluted in PBS containing 1% FCS. The antibody was used at a concentration closed to its determined Kd. 15 μl compounds were then added to the cells and 15 μl antibody immediately afterwards. Plates were incubated at 4° C. in the dark for 2 hours. Afterwards cells were washed twice with PBS containing 1% FCS and fixed with 2% PFA. Antibody binding was analyzed by flow cytometry (FACS CytoFLEX; Beckman Coulter®).

SMILES strings stand for the structures.

T2 sequence (P61073 whole entry): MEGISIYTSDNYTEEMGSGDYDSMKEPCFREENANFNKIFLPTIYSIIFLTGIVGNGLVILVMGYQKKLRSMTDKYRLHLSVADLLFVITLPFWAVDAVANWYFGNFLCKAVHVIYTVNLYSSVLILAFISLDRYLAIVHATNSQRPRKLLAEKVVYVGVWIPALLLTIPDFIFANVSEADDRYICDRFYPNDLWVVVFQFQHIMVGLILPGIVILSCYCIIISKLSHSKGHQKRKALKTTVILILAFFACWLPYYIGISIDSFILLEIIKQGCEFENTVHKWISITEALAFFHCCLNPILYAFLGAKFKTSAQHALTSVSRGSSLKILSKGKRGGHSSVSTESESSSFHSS
T1 sequence (P61073 whole entry): as above

For `CC[C@H](C)[C@H](N)C(=O)N[C@@H](CC(C)C)C(=O)N[C@@H](CCCNC(=N)N)C(=O)N[C@@H](Cc1c[nH]c2ccccc12)C(=O)N[C@@H](CO)C(=O)N[C@@H](CCCNC(=N)N)C(=O)N[C@@H](CCCCN)C(=O)N[C@@H](CC(C)C)C(=O)N1CCC[C@H]1C(=O)N[C@@H](CS)C(=O)N[C@H](C(=O)N[C@@H](CO)C(=O)O)C(C)C` [JM #21], the “blocking of CXCR4 12G5 epitope of AML cells” value in assay [1] is “efficiently blocked the CXCR4 12G5 epitope of AML cells in a dose dependent manner”. For the same compound, the “engraftment potential of CD34+ normal cells” value in assay [2] is “no inhibiting effect on the engraftment potential of CD34+ normal cells”. Further, the “migration of AML cells along a CXCL12 gradient” value in assay [3] is “inhibited migration of AML cells along a CXCL12 gradient”. Further, the “engraftment potential of primary CXCR4 AML patient samples” value in assay [4] is “reduced engraftment potential of primary CXCR4 AML patient samples in NSG mice”. Further, the “antibody competition / binding to CXCR4 (in words)” value in assay [5] is reported as “more effective antibody competition”.
